The text below walks through data of patent publication US20090221687A1, “Tetracyclic Monoamine Reuptake Inhibitors for Treatment of Cns Diseases and Disorders” (priority 2005, published 2009).

Where two headings read alike, the source gives them in different places.

A short description of series [1]: pKa. It is filed as physicochemical.
Series [2] in a line: logP. It counts as physicochemical.
Series [3] in a line: solubility. It is filed as physicochemical. Particulars: at 25° C. and ionic strength 0.15 M; read-out: solubility (S).
Series [4] concerns the target T1, Serotonin Transporter (SERT) (Homo sapiens, UniProt P31645).
T1 construct: expressed in transfected cells; host or cells: HEK-293 cells
Particulars: human recombinant HEK-293 cells, historical value for the KD of the ligand, cited from earlier work.

For series [5], the target named is T2, Norepinephrine Transporter (NET) (Homo sapiens, UniProt P23975).
T2 construct: expressed in transfected cells; host or cells: MDCK cells
Particulars: read-out: KD of the radioligand; human recombinant MDCK cells; historical value for the KD of the ligand; cited from earlier work.

Series [6] concerns mice. The experiment in a line: Tail-suspension test in mice: evaluation of antidepressive efficacy. It counts as in vivo. Particulars: 10 mg/kg i.p., 30 min prior to testing, vehicle control 70%. The source says:
The aim of this study was to evaluate potential antidepressant activity of selected compounds Formula I. The tail suspension test has been routinely employed to test potential antidepressant compounds (See H. G. Vogel and W. H. Vogel, Drug Discovery and Evaluation, Pharmacological Assays, Springer-Verlag, 1997, p 304-305). The percentage of drug-treated animals showing the passive behavior (i.e., the immobility that mice display after active and unsuccessful attempts to escape when suspended by the tail) is measured and compared with vehicle-treated control animals. The duration of immobility is recorded for about 5 minutes. Mice are considered immobile when they hang passively and completely motionless for at least 1 minute. Active antidepressants reduce the immobility.
Groups of 9 animals were treated with compounds encompassed by Formula I (0.1-10 mg/kg; s.c.), or fluoxetine (10 mg/kg i.p.), and one group of 15 animals was treated with the vehicle by s.c. injection as a […] control. All animals were treated for 30 min prior to testing. The percentage of drug-treated animals showing passive behavior was determined and compared with vehicle-treated controls. […]

T1 sequence (P31645 whole entry): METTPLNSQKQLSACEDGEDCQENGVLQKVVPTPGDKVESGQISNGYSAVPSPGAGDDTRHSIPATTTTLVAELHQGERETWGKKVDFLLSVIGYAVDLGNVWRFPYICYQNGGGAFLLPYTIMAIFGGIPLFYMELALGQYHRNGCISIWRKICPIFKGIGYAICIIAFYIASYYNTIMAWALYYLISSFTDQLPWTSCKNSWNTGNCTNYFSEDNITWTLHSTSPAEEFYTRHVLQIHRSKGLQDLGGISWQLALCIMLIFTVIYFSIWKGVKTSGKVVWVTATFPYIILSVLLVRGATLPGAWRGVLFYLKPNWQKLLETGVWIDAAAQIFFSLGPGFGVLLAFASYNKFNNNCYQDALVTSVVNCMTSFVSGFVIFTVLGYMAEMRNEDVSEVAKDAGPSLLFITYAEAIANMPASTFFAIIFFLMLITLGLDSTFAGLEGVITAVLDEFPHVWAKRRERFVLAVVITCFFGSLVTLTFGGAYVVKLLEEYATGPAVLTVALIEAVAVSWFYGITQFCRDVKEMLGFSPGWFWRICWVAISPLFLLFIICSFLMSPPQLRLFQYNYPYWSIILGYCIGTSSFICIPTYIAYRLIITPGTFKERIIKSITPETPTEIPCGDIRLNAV
T2 sequence (P23975 whole entry): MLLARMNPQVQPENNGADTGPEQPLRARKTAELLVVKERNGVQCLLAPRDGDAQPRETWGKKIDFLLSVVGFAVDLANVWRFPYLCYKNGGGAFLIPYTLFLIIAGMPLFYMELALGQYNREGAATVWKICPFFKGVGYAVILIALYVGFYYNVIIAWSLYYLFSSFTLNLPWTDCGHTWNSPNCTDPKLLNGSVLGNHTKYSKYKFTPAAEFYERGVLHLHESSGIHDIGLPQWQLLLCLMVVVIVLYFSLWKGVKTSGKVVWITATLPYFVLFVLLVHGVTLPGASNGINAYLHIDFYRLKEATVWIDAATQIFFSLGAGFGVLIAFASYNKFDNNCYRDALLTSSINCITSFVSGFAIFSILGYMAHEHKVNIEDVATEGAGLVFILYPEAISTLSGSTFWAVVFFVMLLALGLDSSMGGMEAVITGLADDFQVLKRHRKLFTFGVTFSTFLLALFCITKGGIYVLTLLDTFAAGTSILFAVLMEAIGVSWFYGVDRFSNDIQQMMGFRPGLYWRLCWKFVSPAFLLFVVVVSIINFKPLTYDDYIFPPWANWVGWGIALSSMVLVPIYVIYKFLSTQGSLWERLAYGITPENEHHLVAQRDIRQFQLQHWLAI

What is called pKa is the pH at which an ionisable group is half protonated. A lower pKa goes with a stronger acid or weaker base. For orientation: logP means a log measure of how a compound divides between an organic and an aqueous phase. Lower therefore signals a more hydrophilic compound. The solubility is the dissolved amount per volume that the medium holds. Turning to `CCOC(=O)c1cc2c(s1)-c1cc(Cl)cc(OCCCN(C)C)c1Oc1ccccc1-2.O=C(O)CC(O)(CC(=O)O)C(=O)O` [Example 2, 11-Chloro-9-(3-dimethylamino-propoxy)-8-oxa-1-thia-dibenzo[e,h]azulene-2-carboxylic acid ethyl ester citrate salt], the pKa in series [1] was determined as 6.9. The same compound displayed a lipophilicity (logP) in series [2] of 4.5. Moreover, the solubility in series [3] is 167 mg/mL.
For `COC(=O)[C@H]1[C@@H](c2ccc(I)cc2)C[C@@H]2CC[C@H]1N2C` [[^125I] RTI-55, 3 beta-(4-iodophenyl)tropan-2 beta-carboxylic acid methyl ester], the values for the Kd in series [4] (read-out: KD1 of the radioligand), in series [4] (read-out: KD2 of the radioligand) and in series [5] were 0.17 nM, 2200 nM and 24 nM, respectively.
With `CNCCC(Oc1ccc(C(F)(F)F)cc1)c1ccccc1` (stereo not shown) [fluoxetine], the “percentage of animals depressive (exhibiting passive behavior)” value in series [6] is reported as 22%.
